In patent US6403647B1, “Pulsed administration of compositions for the treatment of blood disorders” (priority 1996, dated 2002):

Key:
Bfu-e = assay: Erythroid colony (Bfu-e) proliferation with maximal growth factors, normal subject; assay type: cell-based, human; settings: 0.1 mM
Excerpt: Erythroid cells were obtained, as described in Example 1, from a normal subject and cultured on semi-solid medium in the presence of a maximal amount of erythroid growth factors including IL-6, GM-CSF, SCF and EPO. Erythroid proliferation in the presence of these factors is expected to be maximal and, therefore, any increases observed would be significant.

[1] = Conventional versus pulse treatment of a sickle cell patient; assay type: in vivo, human
Protocol: Conventional treatment: A patient with sickle cell disease was tested with arginine butyrate at 750 mg/kg. Drug was administered by infusion for 10-16 hours per day and 5 days/week. […] After 150 days, total HbF declined to about 10%.
Pulse treatment: Treatment of the same sickle cell patient as above was changed from weekly to pulse administration of arginine butyrate about one year later (FIG. 5B). Arginine butyrate was administered by infusion at 500 to 750 mg/kg for 4 days for about 10-16 hours per day. After the 4 day regimen, drug was withheld for 10 days before treatment was repeated. This regimen was continued for about 5 months and percent total fetal hemoglobin increased to over 20%. This level was maintained until treatment was discontinued. Hemoglobin F levels above 20% are generally considered to be sufficient to eliminate symptoms associated with sickle cell disease.

Half-life = settings: in vivo
[2] = test system: system A transport of amino acids; assay: Uptake of 3H-methyl-aminoisobutyric acid (MeAIB) into erythroblasts; assay type: cell-based
Protocol: Erythroblasts were tested for alterations in uptake of radio-labelled amino acid (^3H-methyl-aminoisobutyric acid; MeAIB) in the presence of AB (arginine butyrate), AMHCA (α-methylhydrocinnamic acid), PAA (phenoxyacetic acid), and IBT (isobutyramide), each at 2.0 mM.

[3] = DNA fragmentation assays (cell viability); assay type: cell-based
Excerpt: Normal cell viability, the viability of an untransformed or uninfected cell, can be determined from analyzing the effects of the composition on one or more biological processes of the cell. Detrimental interference with one or more of these cellular processes becomes significant when the process becomes abnormal. Examples of quantitatable and qualifiable biological processes include the processes of cell division, protein synthesis, nucleic acid (DNA or RNA) synthesis, nucleic acid (principally DNA) fragmentation and apoptosis. Others processes include specific enzyme activities, the activities of the cellular transportation systems such as the transportation of amino acids by system A (neutral), system B (acidic) or system C (basic), and the expression of a cell surface protein. […] Abnormal cell division, for example, can be mitosis which occurs too rapidly, as in a malignancy, or unstably, resulting in programmed cell death or apoptosis, detected by increased DNA degradation. The determination of abnormal cell viability can be made on comparison with untreated control cells. Compositions preferably increase normal cell viability. Increased cell viability can be determined by those of ordinary skill in the art using, for example, DNA fragmentation analysis. […] Determinations of increased or decreased viability can also be concluded from an analysis of the results of multiple different assays. Where multiple tests provide conflicting results, accurate conclusions can still be drawn by those of ordinary skill based upon the cell type, the correctness or correlation of the tests with actual conditions and the type of composition.
Patients with blood disorders are typically quite infirm with, for example, iron damaged organs and systems. Most treatments further tax the patient's already frail health in an effort to combat the disorder.

[4] = Continuous 24 hour per day infusions in sickle cell disease and beta thalassemia patients; assay type: in vivo, human
Protocol: Continuous 24 hour per day infusions of was administered in another study to 10 patients with sickle cell disease and beta thalassemia and produced rises in fetal globin in a lower proportion of patients, 40%. Many of these responses were not sustained.
Therefore, the same infusion rate given for 24 hours/day results in a lower response rate than does 8-16 hour/day treatment at the same infusion rate. A lower proportions of patients respond hematologically with continuous 24 hours therapy (1/10 patients) than respond to intermittent pulse therapy 8/10 patients. Hematologic responses are higher with pulse therapy (2-5) gram/dl above baseline levels compared to no responses in patients treated with 24 hour therapy.

arginine butyrate
Bfu-e colonies, % of control (Bfu-e): 16 % of control | percent total HbF ([1]; conventional treatment, after 150 days): about 10% | percent total HbF ([1]; conventional, 750 mg/kg infusion 10-16 hours per day, 5 days/week, from 3%): 15-18% | percent total fetal hemoglobin ([1]; pulse, 500 to 750 mg/kg for 4 days, 10 days withheld, about 5 months): over 20% | half-life (Half-life): 15 min | amino acid (MeAIB) uptake / transport ([2]; 2.0 mM, relative to untreated fetal liver erythroid cells): inhibited amino acid uptake | inhibition of MeAIB uptake ([2]; after 60 and 120 minutes): most significant | cell viability in DNA fragmentation assays [3]: decrease cell viability | proportion of patients with rises in fetal globin ([4]; continuous 24 hour per day infusions, 10 patients): 40% | patients responding hematologically ([4]; continuous 24 hours therapy): 1/10
